Values of other authors in US7202251B2, “Bicyclic anilide spirohydantoin CGRP receptor antagonists” (Merck & Co., Inc., priority 2003, dated 2007).
Ends that are not written are not given here.

Columns and labels:
facial blood flow [1] = conditions: marmoset, electrical stimulation of the trigeminal ganglion
facial blood flow [2] = conditions: rat, trigeminal ganglion stimulation
[3] = tested on: middle meningeal artery diameter; conditions: rats, electrical stimulation of the dura mater, prior administration

NCCCC[C@H](NC(=O)[C@@H](Cc1cc(Br)c(O)c(Br)c1)NC(=O)N1CCC(N2Cc3ccccc3NC2=O)CC1)C(=O)N1CCN(c2ccncc2)CC1 [BIBN4096BS]
effect on increase in facial blood flow (facial blood flow [1]): blocked

CGRP(8-37): a peptide CGRP antagonist (VTHRLAGLLSRSGGVVKNNFVPTNVGSKAF; ends and bridges not checked; UniProt P06881 90-119, looked up, fragment)
effect on increased facial blood flow (facial blood flow [2]): inhibited | effect on increase of middle meningeal artery diameter [3]: blocked
